One experiment concerns all MMPs tested. As to conditions: read-out: IC50's on all MMPs tested; cited from earlier work.
The target in another experiment is T1, MMP-2 (Homo sapiens, UniProt P08253).
T1 construct: Human MMP-2 full length (aa 1-660)
T1 sequence (P08253 30-660): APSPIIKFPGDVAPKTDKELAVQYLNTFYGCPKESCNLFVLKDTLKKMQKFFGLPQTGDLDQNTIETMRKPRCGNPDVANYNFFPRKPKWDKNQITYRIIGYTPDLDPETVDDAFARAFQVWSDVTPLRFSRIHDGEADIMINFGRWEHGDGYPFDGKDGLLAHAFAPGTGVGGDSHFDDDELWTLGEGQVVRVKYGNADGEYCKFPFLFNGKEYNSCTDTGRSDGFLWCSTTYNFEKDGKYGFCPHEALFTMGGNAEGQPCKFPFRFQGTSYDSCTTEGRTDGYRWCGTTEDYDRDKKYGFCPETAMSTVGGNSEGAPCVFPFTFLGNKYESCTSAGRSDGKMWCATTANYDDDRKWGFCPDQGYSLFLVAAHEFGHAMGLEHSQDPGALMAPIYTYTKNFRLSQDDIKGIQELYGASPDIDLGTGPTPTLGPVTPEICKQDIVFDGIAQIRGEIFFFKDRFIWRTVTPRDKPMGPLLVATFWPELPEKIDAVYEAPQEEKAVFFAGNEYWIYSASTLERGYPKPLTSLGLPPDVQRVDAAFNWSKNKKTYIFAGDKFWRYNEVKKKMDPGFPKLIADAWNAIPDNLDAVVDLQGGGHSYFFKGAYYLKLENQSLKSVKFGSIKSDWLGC
The experiment can be described thus: MMP enzymatic assay (Trupoint peptide), MMP-2. In kind it is biochemical.

In the next experiment the target is T2, MMP-9 (Homo sapiens, UniProt P14780).
T2 construct: Human MMP-9 catalytic domain (aa 107-446)
T2 sequence (P14780 107-446): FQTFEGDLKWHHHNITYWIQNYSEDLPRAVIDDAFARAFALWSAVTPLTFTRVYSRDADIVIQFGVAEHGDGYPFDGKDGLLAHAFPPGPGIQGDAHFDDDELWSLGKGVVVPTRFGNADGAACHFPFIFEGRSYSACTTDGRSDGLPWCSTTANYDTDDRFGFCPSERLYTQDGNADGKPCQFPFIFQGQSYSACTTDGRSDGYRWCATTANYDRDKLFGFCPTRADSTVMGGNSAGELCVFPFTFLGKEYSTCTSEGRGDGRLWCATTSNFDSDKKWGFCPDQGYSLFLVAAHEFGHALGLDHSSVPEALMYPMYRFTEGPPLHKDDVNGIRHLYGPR
The experiment can be described thus: MMP enzymatic assay (Trupoint peptide), MMP-9. In kind it is biochemical.

Results on 22 molecules are retold here after patent publication US7803793B2, “Heterocyclic derived metalloprotease inhibitors” (Janssen Pharmaceutica NV, priority 2006, dated 2010).

Like-named read-outs stand apart in the source and are kept apart here.

For the molecule `CNC(=O)[C@H](Cc1c[nH]c2ccccc12)NC(=O)[C@H](Cc1ccccc1)C1OCCN(O)C1=O` (stereo partly shown), the IC50 with all MMPs tested was 20100 to 104000 nM. As for `N#Cc1ccc2[nH]c(-c3ccc(S(=O)(=O)C4CCCCN(O)C4=O)cc3)nc2c1` (stereo not shown) [Compound 76, 2-[4-(1-Hydroxy-2-oxo-azepane-3-sulfonyl)-phenyl]-1H-benzimidazole-5-carbonitrile], the IC50 at MMP-2 and at MMP-9 was over 1000 nM in each case. For `COc1ccc2[nH]c(-c3ccc(S(=O)(=O)C4CCCCN(O)C4=O)cc3)nc2c1` (stereo not shown) [Compound 77, 1-Hydroxy-3-[4-(5-methoxy-1H-benzoimidazol-2-yl)-benzenesulfonyl]-azepan-2-one], the 50% inhibitory concentration (IC50) against MMP-2 and against MMP-9 was over 1000 nM each time. As to `O=C1C(S(=O)(=O)c2ccc(-c3nc4cc(F)ccc4[nH]3)cc2)CCCCN1O` (stereo not shown) [Compound 78, 3-[4-(5-Fluoro-1H-benzoimidazol-2-yl)-benzenesulfonyl]-1-hydroxy-azepan-2-one], the figures for the IC50 at MMP-2 (read-out: MMP-2 nM IC50) and on MMP-9 were 377 nM and 846 nM, respectively. On to `O=C1C(S(=O)(=O)c2ccc(F)cc2)CCCCN1O` (stereo not shown) [Compound 79, 3-(4-Fluoro-benzenesulfonyl)-1-hydroxy-azepan-2-one], for which the IC50 against MMP-2 and at MMP-9 was over 1000 nM throughout. Turning to `O=C1C(S(=O)(=O)c2ccc(Br)cc2)CCCCN1O` (stereo not shown) [Compound 81, 3-(4-Bromo-benzenesulfonyl)-1-hydroxy-azepan-2-one], the IC50 at MMP-2 and on MMP-9 was over 1000 nM each time. With `O=C1C(S(=O)(=O)c2ccc(-c3ccc(Cl)cc3)cc2)CCCCN1O` (stereo not shown) [Compound 82, 3-(4′-Chloro-biphenyl-4-sulfonyl)-1-hydroxy-azepan-2-one], the IC50 at MMP-2 and at MMP-9 was over 1000 nM in each case.

With `O=C1C(S(=O)(=O)c2ccc(-c3ccccc3)cc2)CCCCN1O` (stereo not shown) [Compound 83, 3-(Biphenyl-4-sulfonyl)-1-hydroxy-azepan-2-one], the 50% inhibitory concentration (IC50) at MMP-2 and at MMP-9 was over 1000 nM in each case. `N#Cc1ccc(-c2ccc(S(=O)(=O)C3CCCCN(O)C3=O)cc2)cc1` (stereo not shown) [Compound 84, 4′-(1-Hydroxy-2-oxo-azepane-3-sulfonyl)-biphenyl-4-carbonitrile]: the IC50 against MMP-2 and at MMP-9 was over 1000 nM each time. Regarding `Cc1ccc(-c2ccc(S(=O)(=O)C3CCCCN(O)C3=O)cc2)cc1` (stereo not shown) [Compound 86, 1-Hydroxy-3-(4′-methyl-biphenyl-4-sulfonyl)-azepan-2-one], the IC50 against MMP-2 and on MMP-9 was over 1000 nM each time.

`O=c1c(N(CCN2CCOCC2)S(=O)(=O)c2ccc(Oc3ccc(Cl)cc3)cc2)cccn1O` [Compound 87, 4-(4-Chloro-phenoxy)-N-(1-hydroxy-2-oxo-1,2-dihydro-pyridin-3-yl)-N-(2-morpholin-4-yl-ethyl)-benzenesulfonamide]: the IC50 is 5 nM at MMP-2 (read-out: MMP-2 nM IC50) and 4.2 nM on MMP-9. In the case of `Cc1ccc(-c2ccc(S(=O)(=O)N[C@@H]3CC=CCN(O)C3=O)s2)cc1` [Compound 90], the IC50 on MMP-2 is 4.2 nM; on MMP-9 it was 8.6 nM. The matching figures for `Cc1ccc(C#Cc2ccc(S(=O)(=O)N(CCN3CCOCC3)C3CC=CCN(O)C3=O)s2)cc1` (stereo not shown) [Compound 91]: 2.2 nM and 0.6 nM. For `O=C1C(NS(=O)(=O)c2ccc(Oc3ccc(Cl)cc3)cc2)CCCCN1O` (stereo not shown) [Compound 92] the same measures were 3.7 nM and 5.9 nM. The matching figures for `O=C1C(N(CCN2CCOCC2)S(=O)(=O)c2ccc(-c3ccc(Cl)cc3)s2)CC=CCN1O` (stereo not shown) [Compound 93]: 16.4 nM and 17.2 nM. `O=C1C(CS(=O)(=O)c2ccc(Oc3ccccc3)cc2)NCCCN1O` (stereo not shown) [Compound 94]: the IC50 is 36.8 nM at MMP-2 and 21.1 nM on MMP-9. The matching figures for `O=C1C(S(=O)(=O)c2ccc(-c3ccc(F)cc3)cc2)CCCCN1O` (stereo not shown) [Compound 95]: 584 nM and 1190 nM. The matching figures for `COc1ccc(S(=O)(=O)Cc2cccn(O)c2=O)cc1` [Compound 96]: over 1000 nM and over 1000 nM. On to `COc1ccc(Oc2ccc(S(=O)(=O)Cc3cccn(O)c3=O)cc2)cc1` [Compound 97], for which the IC50 was determined as 17.3 nM at MMP-2 (read-out: MMP-2 nM IC50) and 7.26 nM on MMP-9. `O=c1c(N(CCN2CCSCC2)S(=O)(=O)c2ccc(Oc3ccc(Cl)cc3)cc2)cccn1O` [Compound 98]: the IC50 at MMP-2 (read-out: MMP-2 nM IC50) was found to be 6.1 nM; on MMP-9, 4.9 nM. The matching figures for `CN1CCN(CCN(c2cccn(O)c2=O)S(=O)(=O)c2ccc(Oc3ccc(Cl)cc3)cc2)CC1` [Compound 99]: 1.7 nM and 1.3 nM. For “N-(1-Hydroxy-2-oxo-1,2-dihydro-pyridin-3-yl)-N-methyl-4-p-tolyloxy-benzene-sulfonamide [Compound 26]” the same measures were 6.1 nM and 3.4 nM.

The IC50 is the concentration at which inhibition is half-maximal.
